# Laboratory results reported in patent EP1914236A1 (Ortho-McNeil Pharmaceutical, Inc., priority 2002, dated 2003).
# Target: T1, human B2 bradykinin receptors (Homo sapiens, UniProt P30411)
# T1 construct: purchased Receptor Biology, Inc. (Baltimore, MD); host or cells: CHO-K1 cells transfected with the human B2 receptor (membranes)
# T1 sequence (P30411 1-391): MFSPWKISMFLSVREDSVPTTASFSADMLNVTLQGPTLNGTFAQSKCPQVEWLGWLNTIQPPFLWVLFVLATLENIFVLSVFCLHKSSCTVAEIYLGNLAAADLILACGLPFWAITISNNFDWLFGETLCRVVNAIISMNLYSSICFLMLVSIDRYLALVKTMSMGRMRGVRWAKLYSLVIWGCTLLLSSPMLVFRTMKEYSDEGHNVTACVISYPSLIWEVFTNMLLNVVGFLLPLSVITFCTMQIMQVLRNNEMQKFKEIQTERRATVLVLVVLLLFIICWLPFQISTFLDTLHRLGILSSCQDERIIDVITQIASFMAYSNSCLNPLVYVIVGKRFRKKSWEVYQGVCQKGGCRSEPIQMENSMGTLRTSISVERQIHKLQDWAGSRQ
# Test: Bradykinin B2 (BK2) Receptor Binding Assay
# Settings: membranes of CHO-K1 cells transfected with human B2 bradykinin receptors; ~0.25 nM [3H]NPC17731; 60 min at 25°C
# Experimental: Cell membranes of CHO-K1 cells transfected with human B2 bradykinin receptors (CH)-hB2) were purchased from Receptor Biology, Inc. (Baltimore,MD).
# Samples were harvested on a Brandel Cell Harvester on to Wallac filtermat B sheets (96 sample format), and washed three times with 2 mL cold HEPES-buffer (10 mM, pH 7.5), and dried in a microwave oven.
# The data were used to calculate either the % inhibition compared to control binding (when only a single concentration of test compound was evaluated) or a Ki value (when a range of concentrations were tested). Background was subtracted from mean cpm values and % inhibition was calculated as: [(total dpm-test compound dpm)/(total dpm-nonspecific dpm)]x100. Kd and Ki values were calculated using GraphPad PRISM data analysis program.
row,Compound,Ki [µM]
1,"2-(5-Benzoyl-thiophen-2-yl)-N-[2,4-dimethyl-3-(2-methyl-quinolin-8-yloxymethyl)-phenyl]-N-methyl-acetamide [Compound 108]",0.09
2,"CCCCCC(=O)c1ccc(CC(=O)N(C)c2ccc(Cl)c(COc3cccc4ccc(C)nc34)c2Cl)n1C [Compound 23, N-[2,4-Dichloro-3-(2-methyl-quinolin-8-yloxymethyl)-phenyl]-2-(5-hexanoyl-1-methyl-1H-pyrrol-2-yl)-N-methyl-acetamide]",5.43
3,Cc1ccc2cccc(OCc3c(Cl)ccc(N(C)C(=O)Cc4ccc(C(=O)c5ccccc5N)n4C)c3Cl)c2n1 [Compound 53],0.393
4,CC(C)=CC(=O)c1ccc(CC(=O)N(C)c2ccc(Cl)c(COc3cccc4ccc(C)nc34)c2Cl)n1C [Compound 39],0.784
5,CCN(CC)CC(=O)c1ccc(CC(=O)N(C)c2ccc(Cl)c(COc3cccc4ccc(C)nc34)c2Cl)n1C [Compound 48],0.51
6,Cc1ccc2cccc(OCc3c(Cl)ccc(N(C)C(=O)Cc4ccc(C(=O)Cc5ccccc5)n4C)c3Cl)c2n1 [Compound 28],2.37
7,Cc1ccc2cccc(OCc3c(Cl)ccc(N(C)C(=O)Cc4ccc(C(=O)c5cccc([N+](=O)[O-])c5)n4C)c3Cl)c2n1 [Compound 42],0.688
8,"Cc1nc2c(OCc3c(Cl)ccc(N(C)C(=O)Cc4ccc(C(=O)c5ccc(S(C)(=O)=O)cc5)n4C)c3Cl)cccn2c1Br [Compound 103, N-[3-(3-Bromo-2-methyl-imidazo[1,2-a]pyridin-8-yloxymethyl)-2,4-dichlorophenyl]-2-[5-(4-methanesulfonyl-benzoyl)-1-methyl-1H-pyrrol-2-yl]-N-methyl-acetamide]",0.0685
9,Cc1ccc2cccc(OCc3c(C)ccc(N(C)C(=O)CCc4ccc(C(=O)c5ccccc5)s4)c3C)c2n1 [Compound 104],0.554
10,CSc1ccc(C(=O)c2ccc(CC(=O)N(C)c3ccc(Cl)c(COc4cccc5ccc(C)nc45)c3Cl)n2C)s1 [Compound 43],0.68
11,Cc1ccc2cccc(OCc3c(Cl)ccc(N(C)C(=O)Cc4ccc(C(=O)c5cccc6ccccc56)n4C)c3Cl)c2n1 [Compound 38],0.807
12,COc1ccc(C(=O)c2ccc(CCC(=O)N(C)c3ccc(C)c(COc4cccc5ccc(C)nc45)c3C)s2)cc1 [Compound 106],0.375
13,"Cc1ccc2cccc(OCc3c(Cl)ccc(N(C)C(=O)Cc4ccc(C(=O)c5ccc(C#N)cc5)[nH]4)c3Cl)c2n1 [Compound 6, 2-[5-(4-Cyano-benzoyl)-1 H-pyrrol-2-yl]-N-[2,4-dichloro-3-(2-methyl-quinolin-8-yloxymethyl)-phenyl]-N-methyl-acetamide]",0.041
14,"Cc1ccc2cccc(OCc3c(Cl)ccc(N(C)C(=O)Cc4ccc(C(=O)c5ccc(CN6CCCC6)cc5)n4C)c3Cl)c2n1 [Compound 46, N-[2,4-Dichloro-3-(2-methyl-quinolin-8-yloxymethyl)-phenyl]-N-methyl-2-[l-methyl-5-(4-pyrrolidin-1-ylmethyl-benzoyl)-1H-pyrrol-2-yl]-acetamide]",0.56
15,Cc1ccc2cccc(OCc3c(Cl)ccc(N(C)C(=O)Cc4ccc(C(=O)c5ccc6c(c5)OCO6)n4C)c3Cl)c2n1 [Compound 50],0.583
16,"Cc1ccc2cccc(OCc3c(Cl)ccc(N(C)C(=O)Cc4cc(C(=O)c5ccc(S(C)(=O)=O)cc5)cn4C)c3Cl)c2n1 [Compound 1, N-[2,4-Dichloro-3-(2-methyl-quinolin-8-yloxymethyl)-phenyl]-2-[4-(4-methanesulfonyl-benzoyl)-1-methyl-1 H-pyrrol-2-yl]-N-methyl-acetamide]",2.91
17,Cc1ccc2cccc(OCc3c(Cl)ccc(N(C)C(=O)Cc4ccc(C(=O)c5ccc(Br)cc5)n4C)c3Cl)c2n1 [Compound 35],1.05
18,"Cc1ccc2cccc(OCc3cccc(N(C)C(=O)Cc4ccc(C(=O)c5cccc(C#N)c5)n4C)c3Cl)c2n1 [Compound 116, N-[2-Chloro-3-(2-methyl-quinolin-8-yloxymethyl)-phenyl]-2-[5-(3-cyanobenzoyl)-1-methyl-1 H-pyrrol-2-yl]-N-methyl-acetamide]",17.6
